# Source: US20120258975A1, “Potent Small Molecule Inhibitors of Autophagy, and Methods of Use Thereof” (Shanghai Institute of Organic Chemistry, priority 2009, published 2012)
# Where “and” joins values, the source holds several entries; their conditions need not be identical. Equal entries are not always repeated. Entries after “also recorded” stand apart in the source; their conditions may differ. Where two headings read alike, the source gives them in different places.
# Tests used:
# LC3-GFP (H4-LC3 cells) = assay: LC3-GFP image-based autophagy assay in H4-LC3 cells; format: cell-based
# Protocol: FIG. 1 relates to identification of a small molecule inhibitor of autophagy by an image-based screen. A, structure of MBCQ. B, Quantitative analysis of LC3-GFP spot number per cell (a), spot size per cell (b), spot intensity per cell (c). The data are expressed as % of control vehicle treated cells. H4-LC3 cells were seeded in 96 well-plates and incubated with vehicle control (1% DMSO), 0.2 μM rapamycin with or without 10 μM MBCQ for indicated time, fixed with 4% paraformaldehyde and stained with 4,6-diamidino-2-phenylindole (DAPI, 3 μg/ml). Images of 1000 cells for each compound treatment were analyzed by ArrayScan HCS 4.0 Reader with a 20× objective (Cellomics, Pittsburgh, Pa.).
# (§1) FIG. 14 depicts MBCQ derivatives that can inhibit autophagy. To calculate EC50, H4-LC3 cells were seeded in 96 well-plates and cultured in the presence of compounds in different concentration for 24 h, and then fixed with polyformate and stained with 4,6-diamidino-2-phenylindole (DAPI, 3 μg/ml). Images data were collected with an ArrayScan HCS 4.0 Reader with a 20× objective (Cellomics, Pittsburgh, Pa.) for DAPI labeled nuclei and GFP-LC3, a marker for autophagy. The Spot Detector Bio-Application was used to acquire and analyze the images after optimization. Images of 1000 cells for each compound treatment were analyzed to obtain average cell number per field, fluorescence spot number, area and intensity per cell. DMSO and rapamycin were used as negative or positive control, respectively. The percentages of changes of LC3-GFP were calculated by dividing with that of DMSO treated samples. Each treatment was done in triplicate for mean and SD. The images were also analyzed using a conventional fluorescence microscope for visual inspection. The experiments were repeated three times
# as §1, with “15” for “14”, “with reduced or no ability to” for “that can”, “times.” for “times”
# To explore the mechanism of autophagy and identify additional small molecules that can activate it, a high-throughput image-based screen for autophagy regulators was developed. This system takes advantage of the localization of light chain 3 coupled to GFP (LC3-GFP) to autophagosomal membrane upon induction of autophagy (Zhang, L., Yu, J., Pan, H., Hu, P., Hao, Y., Cai, W., Zhu, H., Yu, A. D., Xie, X., Ma, D., et al. (2007). Small molecule regulators of autophagy identified by an image-based high-throughput screen. Proc Natl Acad Sci USA 104, 19023-19028). […] Compounds that increase cellular levels of LC3-GFP, however, are not necessarily able to increase degradative activity of autophagy. Instead, the increases of LC3-GFP may be associated with cell death or may be a result of lysosomal defect and thus associated with blockage of autophagy. […]
# PDE5 = PDE5 (Homo sapiens, UniProt O76074); assay: Determination of % inhibition of PDE5 activity; format: biochemical
# bax/bak DKO MEF cells = assay: Etoposide induced cell death of bax/bak DKO cells; format: cell-based, mouse; conditions: MBCQ 10 μM; for cell death induced by etoposide: etoposide 8 μM, spautin 10 μM, 3-MA 10 mM, 8 h
# Protocol: C, cells were collected for western blotting using anti-LC3 antibody. α-tubulin was used as a control. D-F, Bax/bak DKO cells were treated with spautin (10 μM) or indicated concentration, in the presence of or absent etoposide (8 μM) for 8 h or indicated time. […] F, Cells were collected for western blotting using anti-LC3 antibody. α-tubulin was used as a control.
# Autophagy has been proposed to contribute to cell death in a number of apoptotic deficient cell types. For example, bax/bak double deficient mouse embryonic fibroblast cells (DKO mefs) are highly resistant to apoptosis (Wei, M. C., Zong, W. X., Cheng, E. H., Lindsten, T., Panoutsakopoulou, V., Ross, A. J., Roth, K. A., MacGregor, G. R., Thompson, C. B., and Korsmeyer, S. J. (2001). Proapoptotic BAX and BAK: a requisite gateway to mitochondrial dysfunction and death. Science 292, 727-730).
# PtdIns3P = assay: Lipid dot blot assay for cellular PtdIns3P; format: cell-based, mouse; conditions: 10 μM, 3 h; basal and rapamycin treated cells
# Protocol: FIG. 9 depicts results showing that MBCQ and C43 (spautin) selectively reduce the cellular levels of PtdIns3P. MEF cells were treated with DMSO (0.1%), RAPA (0.2 μM) alone, A, MBCQ (10 μM) or B, C43 (spautin) (10 μM) with or without RAPA (0.2 μM) for 3 h. The cellular PtdIns species were extracted and applied onto polyvinylidene fluoride membrane. The levels of PtdIns3P were detected using GST-PX domain protein and anti-GST antibody.
# To further determine the effect of MBCQ on the cellular levels of PtdIns3P, a lipid dot blot assay was used. The cellular PtdIns species were extracted and applied onto polyvinylidene fluoride membrane. The levels of PtdIns3P was detected using GST-PX domain protein and anti-GST antibody. […] Taken together, it was concluded that MBCQ reduces the levels of PtdIns3P.
# Vps34 complexes [1] = assay: Levels of transfected Vps34 complex proteins in 293T cells (western blot); format: cell-based; conditions: for levels of GFP-p150 and Atg14L: 10 μM, 4 h; for levels of flag-tagged Beclin1 and HA-Vps34: 12 h
# Vps34 complexes [2] = assay: Levels of endogenous Beclin1, Vps34, Atg14L in H4 and 293T cells (western blot); conditions: for levels of endogenous Beclin1 in the presence of CHX: 293T cells, 6 h, versus CHX alone; for levels of endogenous Beclin1, Vps34 and Atg14L: H4 cells and 293T cells, 10 μM, 3-MA 10 mM
# Protocol: Twenty-four hours after the transfection, the cells were treated with indicated compounds for 12 h. The cell lysates were analyzed by western blotting using anti-HA, anti-flag or anti-tubulin. […] The cell lysates were harvested and analyzed by western blotting using: anti-Beclin1, anti-Atg14, anti-Vps34 and anti-UVRAG. Anti-α-tubulin was used as loading controls. […] The cell lysates were harvested and analyzed by western blotting using: anti-Beclin1 and anti-LC3. Anti-α-tubulin was used as loading controls.
SMILES,"IC50 (LC3-GFP (H4-LC3 cells); cell-based assays, read-out: IC50, inhibition of autophagy)",inhibiting activity towards PDE5 and other PDEs (PDE5; compared with MBCQ),cell death induced by etoposide (bax/bak DKO MEF cells),cellular levels of PtdIns3P (PtdIns3P),levels of GFP-p150 and Atg14L (Vps34 complexes [1]),levels of flag-tagged Beclin1 and HA-Vps34 (Vps34 complexes [1]),"degradation of GFP-Beclin1, pathway (Vps34 complexes [1]; with MG132 or NH4Cl)",levels of endogenous Beclin1 in the presence of CHX (Vps34 complexes [2]),"levels of endogenous Beclin1, Vps34 and Atg14L (Vps34 complexes [2])",fold more potent than 3-MA (LC3-GFP (H4-LC3 cells); IC50 versus 3-MA working concentration of 10 mM),"LC3-GFP dots (number, spot size, spot intensity) (LC3-GFP (H4-LC3 cells); basal and rapamycin (0.2 μM) stimulated, 10 μM MBCQ)","IC50 (LC3-GFP (H4-LC3 cells); rapamycin and MBCQ together versus rapamycin alone, read-out: IC50 (intensity of LC3-GFP))","% Inhibition of PDE5 activity, Average (PDE5; Concentration = 0.2 μM)","% Inhibition of PDE5 activity, Average (PDE5; Concentration = 2 μM)","% Inhibition of PDE5 activity, Average (PDE5; Concentration = 20 μM)",levels of LC3II in etoposide treated cells (bax/bak DKO MEF cells)
"Fc1ccc(CNc2ncnc3ccc(F)cc23)cc1 [C43, 6-fluoro-N-(4-fluorobenzyl)quinazolin-4-amine]",870 nM and ~800 nM,much reduced inhibiting activity,inhibits etoposide induced death,selectively reduced the cellular levels of PtdIns3P,reduced the levels,considerably lower,promotes the degradation of Beclin1 through the proteasomal pathway,notably lower,"reduce the levels of endogenous Beclin1, Vps34 and Atg14L",,,,,,,
Clc1ccc2ncnc(NCc3ccc4c(c3)OCO4)c2c1 [MBCQ],,,significantly reduced cell death; also recorded: inhibits etoposide induced death,selectively reduced the cellular levels of PtdIns3P,reduced the levels,considerably lower,,notably lower,"reduce the levels of endogenous Beclin1, Vps34 and Atg14L","about 10,000 fold","reduced the number, spot size as well as spot intensity",788 nM,54.4%,91.0%,98.8%,reduced in the presence of MBCQ
